Results reported in US20140219995A1, “INHIBITORS OF BACTERIAL TYPE III SECRETION SYSTEM” (priority 2011, published 2014).
Read-outs that look alike come from different tables or passages of the source.

Columns and labels:
[1] = test system: T3SS-mediated secretion of ExoS′-βLA fusion protein, P. aeruginosa strain MDM973; assay: Effector-β-lactamase (ExoS′-βLA) secretion assay; format: cell-based, Pseudomonas aeruginosa; settings: for IC50: Pseudomonas aeruginosa, read-out: Avg. Secretion IC50
Source text: Effector-β-Lactamase (βLA) Secretion Assays.
P. aeruginosa. A gene encoding an ExoS'-β-lactamase (βLA) fusion protein (comprised of 234 codons of P. aeruginosa effector ExoS fused to the TEM-1 β-lactamase gene lacking secretion signal codons) was constructed by splicing by overlap extension PCR (SOE-PCR) (Choi and Schweizer, 2005, BMC Microbiol., 5:30) using primers 5-10 (Table 3, above), sequence confirmed, cloned into lacI^Q-containing GATEWAY® vector pUCP24GW (see Moir, et al., 2007, J Biomol. Screen., 12:855-64) behind the lac promoter, and introduced into P. aeruginosa by electroporation (see Choi, et al., 2006, J. Microbiol. Methods, 64:391-7). Secretion of fusion proteins was detected by measuring the hydrolysis of the chromogenic β-lactamase substrate nitrocefin in clear 96-well microplates in a modification of a previously described assay (Lee, et al., 2007, Infect. Immun., 75:1089-98). Cells of strain MDM973 (PAK/pUCP24GW-exoS:blaM) were sub-cultured in the morning from overnight growths in LBG into 0.1 ml of LBGIE with or without test compounds and grown for 150 min. Nitrocefin (100 μg/ml final) was added, and A490 measurements taken every minute for 15 min in a Victor^3V 1420 Multilabel HTS Counter (PerkinElmer). Slopes were calculated as a relative measure of the quantity of the effector-βLA fusion protein secreted and were absolutely dependent on induction with IPTG, EGTA, and the presence of a functional pscC gene in the P. aeruginosa cells. Typical signal:background ratios were 6-10.

[2] = test system: T3SS-mediated cytotoxicity of translocated effector protein ExoU in CHO cells; assay: Inhibition of P. aeruginosa ExoU-dependent CHO cell killing (translocation, LDH release); format: cell-based; settings: Pseudomonas aeruginosa, read-out: Avg. Translocation IC50
Source text: Inhibition of P. aeruginosa ExoU-Dependent CHO Cell Killing.
Pseudolipasin, which acts by direct inhibition of the ExoU phospholipase, was used as control inhibitor (Lee, et al, 2007, Infect. Immun., 75:1089-98).

[3] = Determination of mammalian cytotoxicity (MTS); format: cell-based; settings: human
Description: Determination of Mammalian Cytotoxicity.
See, Marshall, et al., 1995, A critical assessment of the use of microculture tetrazolium assays to measure cell growth and function, Growth Regul., 5:69-84. Briefly, 96-well plates were seeded with HeLa cells at a density of 4×10^3 per well in VP-SFM medium without serum (Frazzati-Gallina, et al., 2001, J. Biotechnol., 92:67-72), in the presence or absence of serial dilutions of a compound dissolved in DMSO. Following incubation for 3 days at 37° C. in VP-SFM, cell viability was measured with the vital tetrazolium salt stain 3-(4,5-dimethylthiazol-2-yl)-2,5 diphenyltetrazolium bromide according to the manufacturer's instructions (Promega, Madison, Wis.). Values were determined in duplicate using dilutions of inhibitory compound from 100 μM to 0.2 μM.

[4] = Table 4, HeLa cells, 3 days, dilutions from 100 μM to 0.2 μM, read-out: Avg. CC50

SMILES	IC50 [1] [µM]	IC50 [2] [µM]	CC50 at 3 days [3, 4] [µM]	melting point [°C]	CC50 at 3 days [3] [µM]	effect of structural alteration on T3SS-mediated secretion inhibition ([1]; vs. MBX-1641)	IC50 values lower (T3SS secretion inhibition) ([1]; vs. MBX-1641) [%]
CC(Oc1ccc(Cl)cc1Cl)C(=O)NCc1ccc(F)cc1 (stereo not drawn) [MBX-1642]	8	15	41	–	–	–	–
CC(Oc1ccc(Cl)cc1Cl)C(=O)NCc1ccccc1 (stereo not drawn) [MBX-1939]	–	7.5	54	121	–	–	–
COc1cccc(OC)c1CNC(=O)C(C)Oc1ccc(Cl)cc1Cl (stereo not drawn) [MBX-1950]	53.3	5	22	122	–	–	–
Cc1cccc(CNC(=O)C(C)Oc2ccc(Cl)cc2Cl)c1 (stereo not drawn) [MBX-1952]	–	8	32	113	–	–	–
CC(Oc1ccc(Cl)cc1Cl)C(=O)NCc1cccc(Cl)c1 (stereo not drawn) [MBX-1957]	–	5.4	72	140	–	–	–
CC(Oc1ccc(Cl)cc1Cl)C(=O)NCc1ccc(Cl)cc1 (stereo not drawn) [MBX-1958]	–	9.6	42	115	–	–	–
CC(Oc1ccc(Cl)cc1Cl)C(=O)NCc1ccc(N(C)C)cc1 (stereo not drawn) [MBX-1961]	33	3.4	86	127	–	–	–
CC(Oc1ccc(Cl)cc1Cl)C(=O)NCc1ccccc1F (stereo not drawn) [MBX-1962]	–	8.2	32	121	–	–	–
CC(Oc1ccc(Cl)cc1Cl)C(=O)NCc1cccc(F)c1 (stereo not drawn) [MBX-1963]	–	4.9	59	106	–	–	–
CC(Oc1ccc(Cl)cc1Cl)C(=O)NCc1ccc2c(c1)CCCO2 (stereo not drawn) [MBX-1997]	7.3	9.2	> 100	106	–	–	–
CC(Oc1ccc(F)cc1Cl)C(=O)NCc1ccc(F)cc1 (stereo not drawn) [MBX-2029]	52.1	> 100	–	95	–	–	–
COc1cc(OC)c(OC)cc1CNC(=O)C(C)Oc1ccc(Cl)cc1Cl (stereo not drawn) [MBX-2030]	74.5	> 100	–	142	–	–	–
CC(Oc1ncc(Cl)cc1Cl)C(=O)NCc1ccc2c(c1)OCO2 (stereo not drawn) [MBX-2155]	–	–	> 100	180	–	–	–
COc1ccc(CNC(=O)C(C)Oc2ncc(Cl)cc2Cl)cc1OC (stereo not drawn) [MBX-2156]	24	> 100	–	156	–	–	–
COc1ccc(CNC(=O)C(C)Oc2ncc(Cl)cc2Cl)cc1 (stereo not drawn) [MBX-2157]	9.9	> 100	–	135	–	–	–
CC(Oc1ncc(Cl)cc1Cl)C(=O)NCc1ccc(F)cc1 (stereo not drawn) [MBX-2158]	6.8	26.4	> 100	129	–	–	–
COc1ccc(CNC(=O)C(C)Sc2ccc(Cl)cc2Cl)cc1OC (stereo not drawn) [MBX-2162]	30.4	> 100	–	112	–	–	–
COc1ccc(CNC(=O)C(C)Sc2ccc(Cl)cc2Cl)cc1 (stereo not drawn) [MBX-2163]	8.3	12.2	–	89	> 100	–	–
CC(Oc1ccc(Cl)cc1Cl)C(=O)NC(C)c1ccc2c(c1)OCO2 (stereo not drawn) [MBX-2187]	3.8	11	–	109	–	–	–

SMILES	IC50 [1] [µM]	IC50 [2] [µM]	CC50 at 3 days [3, 4] [µM]	melting point [°C]	CC50 at 3 days [3] [µM]	effect of structural alteration on T3SS-mediated secretion inhibition ([1]; vs. MBX-1641)	IC50 values lower (T3SS secretion inhibition) ([1]; vs. MBX-1641) [%]
CC(Nc1ccc(Cl)cc1Cl)C(=O)NCc1ccc2c(c1)OCO2 (stereo not drawn) [MBX-2212]	9.6	35.3	–	–	80	adverse effect	–
CC(Oc1ccc(Cl)cc1Cl)C(=O)NC(C)(C)c1ccc2c(c1)OCO2 (stereo not drawn) [MBX-2220]	2.9	15	64	105	–	–	29
CC(Oc1ccc(Cl)cc1Cl)C(=O)NC(C)c1ccc(F)cc1 (stereo not drawn) [MBX-2221]	4.6	–	32	–	–	–	34
C[C@@H](Oc1ccc(Cl)cc1Cl)C(=O)N[C@H](C)c1ccc(F)cc1 [MBX-2572]	–	> 100	> 100	–	–	–	–
C[C@H](NC(=O)[C@@H](C)Oc1ccc(Cl)cc1Cl)c1ccc(F)cc1 [MBX-2573]	–	> 100	> 100	–	–	–	–
CC(Oc1ccc(Cl)cc1Cl)C(=O)NCCc1ccc(F)cc1 (stereo not drawn) [MBX-2588]	5.5	68	25	129	–	–	–
CC(Oc1ccc(Cl)cc1Cl)C(=O)NC1COc2cc(F)ccc21 (stereo not drawn) [MBX-2589]	25	> 100	36	134	–	–	–
CC(Oc1ccc(Cl)cc1Cl)C(=O)NCc1ccc2[nH]ccc2c1 (stereo not drawn) [MBX-2590]	1.7	–	–	91	25	–	–
CC(Oc1ccc(Cl)cc1Cl)C(=O)NCc1ccc2c(ccn2C)c1 (stereo not drawn) [MBX-2591]	4.1	> 100	38	146	–	–	–
CC(Oc1ccc(Cl)cc1Cl)C(=O)NC1CCCc2cc(F)ccc21 (stereo not drawn) [MBX-2601]	35	–	–	82	40	–	–
CCC(NC(=O)C(C)Oc1ccc(Cl)cc1Cl)c1ccc(F)cc1 (stereo not drawn) [MBX-2608]	–	–	11	95	–	–	–
CC(Oc1ccc(Cl)cc1Cl)C(=O)NC(c1ccc(F)cc1)C1CCC1 (stereo not drawn) [MBX-2615]	2.2	–	26	103	–	–	–
CC(Oc1ccc(Cl)cc1Cl)C(=O)NC(C)(C)c1ccc(F)cc1 (stereo not drawn) [MBX-2616]	8	–	16	105	–	–	–
CC(Oc1ccc(Cl)cc1Cl)C(=O)NC(c1ccc(F)cc1)C(C)C (stereo not drawn) [MBX-2617]	2.1	–	9	107	–	–	–
CC(Oc1ccc(Cl)cc1Cl)C(=O)NCc1ccc(F)cn1 (stereo not drawn) [MBX-2623]	21	–	70	78	–	–	–
CC(Oc1ccc(Cl)cc1Cl)C(=O)NCc1cc2ccccc2[nH]1 (stereo not drawn) [MBX-2624]	–	16	9	–	–	–	–
CCCC(NC(=O)C(C)Oc1ccc(Cl)cc1Cl)c1ccc(F)cc1 (stereo not drawn) [MBX-2628]	4.3	–	14	79	–	–	–
CCCCC(NC(=O)C(C)Oc1ccc(Cl)cc1Cl)c1ccc(F)cc1 (stereo not drawn) [MBX-2629]	4.7	–	19	100	–	–	–
CC(Oc1ccc(Cl)cc1Cl)C(=O)NC1(c2ccc(F)cc2)CC1 (stereo not drawn) [MBX-2666]	5.3	–	100	134	–	–	–
